Measured values from ChEMBL document CHEMBL1128244, “Synthesis, structure-activity relationships, and pharmacological evaluation of pyrrolo[3,2,1-ij]quinoline derivatives: potent histamine and platelet activating factor antagonism and 5-lipoxygenase inhibitory properties. Potential therapeutic application in asthma” (J Med Chem, 1995).
Activity calls are given as the source filed them. No cut-off for these calls is given here.

Assays:
[1] = organism: Cavia porcellus; test: Ability to inhibit histamine-induced contractions of isolated guinea pig ileum; type: functional
[2] = organism: Oryctolagus cuniculus; test: Test against PAF-induced aggregation of rabbit platelets in vitro; type: functional
[3] = organism: Cavia porcellus; test: Ability to inhibit histamine-induced contractions of isolated guinea pig ileum at 10e-5 M; type: functional
[4] = biological target: T1, Polyunsaturated fatty acid 5-lipoxygenase (Homo sapiens) (UniProt P09917); test: (§1) Inhibitory activity uM; settings: Cavia porcellus; concentration not given here
T1 sequence (whole entry): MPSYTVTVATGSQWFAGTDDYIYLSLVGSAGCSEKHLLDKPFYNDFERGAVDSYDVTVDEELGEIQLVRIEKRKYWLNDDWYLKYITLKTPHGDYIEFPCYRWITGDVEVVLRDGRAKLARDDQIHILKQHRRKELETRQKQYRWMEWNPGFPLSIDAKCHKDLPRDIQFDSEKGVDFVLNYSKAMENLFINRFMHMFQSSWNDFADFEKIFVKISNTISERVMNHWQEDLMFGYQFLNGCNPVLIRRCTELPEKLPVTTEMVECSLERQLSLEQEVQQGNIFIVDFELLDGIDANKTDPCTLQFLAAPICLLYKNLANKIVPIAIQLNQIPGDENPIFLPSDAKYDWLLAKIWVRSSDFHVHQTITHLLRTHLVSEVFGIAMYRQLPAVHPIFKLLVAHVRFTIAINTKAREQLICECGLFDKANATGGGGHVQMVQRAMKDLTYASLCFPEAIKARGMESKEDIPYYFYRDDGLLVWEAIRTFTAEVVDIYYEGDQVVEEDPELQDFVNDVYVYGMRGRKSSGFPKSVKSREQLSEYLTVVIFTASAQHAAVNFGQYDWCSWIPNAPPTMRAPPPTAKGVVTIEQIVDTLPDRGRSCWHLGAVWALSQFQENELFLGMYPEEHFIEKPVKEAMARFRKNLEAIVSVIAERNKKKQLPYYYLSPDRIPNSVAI

[5] = organism: Rattus norvegicus; test: Inhibition of cutaneous histamine reaction in rats.; type: functional
[6] = tested on: Cavia porcellus; test: Ability to inhibit histamine phase of antigen-induced bronchoconstriction in vivo in pulmonary function assays in which Guinea pigs were dosed orally 5 hours prior to test at 10 uM/kg; Not active; type: functional, organism-based
[7] = tested on: Cavia porcellus; test: Ability to inhibit histamine phase of platelet activating factor (PAF)-induced bronchoconstriction in vivo in pulmonary function assays in which Guinea pigs were dosed orally 5 hours prior to test; type: functional; settings: po
[8] = organism: Cavia porcellus; test: Ability to inhibit histamine-induced contractions of isolated guinea pig ileum at 10e-6 M; Not active; type: functional
[9] = tested on: Cavia porcellus; test: Ability to inhibit histamine phase of antigen-induced bronchoconstriction in vivo in pulmonary function assays in which Guinea pigs were dosed orally 5 hours prior to test; type: functional; settings: po
[10] = tested on: Rattus norvegicus; test: Antiallergic activity in the rat PCA assay following oral administration 1 hour before antigen challenge. Five animals were used in this experiment.; type: functional
[11] = biological target: T1, Polyunsaturated fatty acid 5-lipoxygenase (Homo sapiens); test: as §1; type: functional; settings: Cavia porcellus; concentration not given here
[12] = biological target: T1, Polyunsaturated fatty acid 5-lipoxygenase (Homo sapiens); test: Inhibitory activity against partially-purified Guinea pig PMN 5-lipoxygenase at 10 uM; settings: Cavia porcellus, target entry is the homologue from another species

Compound | IC50 [1] | IC50 [2] | ED50 [5] | further results
Cc1ccnc(N2CCN(CCCc3c(C)n4c5c(cccc35)CCC4)CC2)c1 | 1800 nM | 32 µM |  | 
Cc1ccnc(N2CCN(CCc3cn4c5c(cccc35)CCC4)CC2)c1 | 63 nM | 31 µM |  | 
COc1ccc(N2CCN(CCc3c(C)n4c5c(cccc35)CCC4)CC2)cc1 |  | 82 µM |  | inhibition at 10 µM [3]: 9%
CCCCC1CCc2cc(OC)cc3c(CCN4CCN(c5cc(C)ccn5)CC4)c(C)n1c23 (stereo unspecified) | 340 nM | 1.4 µM | 0.9 µmol/kg | inhibition [4]: 50%
Cc1c(CCN2CCC(C(=O)c3ccc(F)cc3)CC2)c2cccc3c2n1CCC3 | 490 nM | > 100 µM |  | 
Cc1ccnc(N2CCN(CCc3c(C)n4c5c(cccc35)CCC4C)CC2)c1 (stereo unspecified) | 33 nM | 6.9 µM | 2.6 µmol/kg | inhibition [4]: 19%
Cc1ccnc(N2CCN(CCc3c(-c4ccc(F)cc4)n4c5c(cccc35)CCC4)CC2)c1 |  | 2 µM |  | inhibition at 10 µM [3]: 3%
COc1ccccc1N1CCN(CCc2c(C)n3c4c(cccc24)CCC3)CC1 | 250 nM | 82 µM |  | 
O=C(O)COCCN1CCN(C(c2ccccc2)c2ccc(Cl)cc2)CC1 (stereo unspecified) [CETIRIZINE] | 380 nM | > 100 µM |  | 
CC(c1cc2ccccc2s1)N(O)C(N)=O (stereo unspecified) |  |  |  | ED50 [6]: inactive
Cc1ccnc(N2CCN(CCc3c(C)n4c5c(cc(C(O)C(C)C)cc35)CCC4)CC2)c1 (stereo unspecified) | 110 nM | 4.2 µM | 2.6 µmol/kg | inhibition [4]: 8%
Cc1ccnc(N2CCN(CCc3c(Cc4ccccc4)n4c5c(cccc35)CCC4)CC2)c1 | 2900 nM | 22 µM |  | 
CCCCCCCC1CCc2cccc3c(CCN4CCN(c5cc(C)ccn5)CC4)c(C)n1c23 (stereo unspecified) |  |  |  | inhibition at 10 µM [3]: 50%
Cc1ccnc(N2CCN(CCc3c(-c4ccccc4)n4c5c(cccc35)CCC4)CC2)c1 |  | 4.2 µM |  | inhibition at 10 µM [3]: 24%
Cc1cccc(N2CCN(CCc3c(C)n4c5c(cccc35)CCC4)CC2)n1 | 350 nM | 47 µM |  | 
Cc1c(CCN2CCN(c3ccccn3)CC2)c2cccc3c2n1CCC3 | 65 nM | 40 µM |  | 
Cc1ccnc(N2CCN(CCc3c(C)n4c5c(cccc35)CCC4)CC2)c1 | 32 nM | 2.6 µM | 4 µmol/kg | inhibition [4]: 0%
CC(C)=Cc1cc2c3c(c1)c(CCN1CCN(c4cc(C)ccn4)CC1)c(C)n3CCC2 | 140 nM | 22 µM | 4.9 µmol/kg | inhibition [4]: 41%
O=C(c1ccccc1)c1cccc(NC(=O)c2ccn3c2CS[C@@H]3c2cccnc2)c1 [TULOPAFANT] |  |  |  | ED50 [6]: inactive; ED50 [7]: 5.5 µmol/kg; IC50 [8]: Not Active
Cc1ccc(-c2c(CCN3CCN(c4cc(C)ccn4)CC3)c3cccc4c3n2CCC4)cc1 |  | 2 µM |  | IC50 [3]: 20 µM

Compound | IC50 [1] | IC50 [2] | ED50 [5] | further results
Cc1ccnc(N2CCN(C(=O)Cc3c(C)n4c5c(cccc35)CCC4)CC2)c1 | 5900 nM | 9.6 µM |  | 
Cc1c(CCN2CCN(c3ccc(F)cc3)CC2)c2cccc3c2n1CCC3 | 76 nM | > 100 µM |  | 
Cc1ccnc(N2CCN(CCc3c(C)n4c5c(cc(O)cc35)CCC4)CC2)c1 | 21 nM | 39 µM | 6 µmol/kg | 
Cc1ccnc(N2CCN(C(=O)CCc3c(C)n4c5c(cccc35)CCC4)CC2)c1 | 1400 nM | 20 µM |  | 
CCCCC1CCc2cccc3c(CCN4CCN(c5cc(C)ccn5)CC4)c(C)n1c23 (stereo unspecified) | 980 nM | 4.8 µM | 2.1 µmol/kg | inhibition [4]: 29%
Cc1c(CCN2CCC(c3ccccc3)CC2)c2cccc3c2n1CCC3 | 450 nM | 75 µM |  | 
CCCCC1CCc2cc(O)cc3c(CCN4CCN(c5cc(C)ccn5)CC4)c(C)n1c23 (stereo unspecified) | 260 nM | 2 µM | 2.8 µmol/kg | inhibition [4]: 100%; ED50 [9]: 1.9 µmol/kg; ED50 [7]: 2.1 µmol/kg; ED50 [10]: 0.9 µmol/kg
CC(=O)c1cc2c3c(c1)c(CCN1CCN(c4cc(C)ccn4)CC1)c(C)n3CCC2 | 19 nM | 7.5 µM | 2 µmol/kg | inhibition [4]: 48%
Cc1cccnc1N1CCN(CCc2c(C)n3c4c(cccc24)CCC3)CC1 |  | 67 µM |  | inhibition at 10 µM [3]: 7%
Cc1c(CCN2CCN(c3ccc(F)c(Cl)c3)CC2)c2cccc3c2n1CCC3 | 510 nM | > 100 µM |  | 
COc1ccc(-c2c(CCN3CCN(c4cc(C)ccn4)CC3)c3cccc4c3n2CCC4)cc1 |  | 0.6 µM |  | inhibition at 10 µM [3]: 15%
COc1cc2c3c(c1)c(CCN1CCN(c4cc(C)ccn4)CC1)c(C)n3CCC2 | 30 nM | 6.2 µM | 0.7 µmol/kg | inhibition [4]: 15%
Cc1ccnc(N2CCN(CCc3c(C)n4c5c(cc(C(=O)/C=C/c6ccccc6)cc35)CCC4)CC2)c1 | 190 nM |  |  | 
Cc1ccc(N2CCN(CCc3c(C)n4c5c(cccc35)CCC4)CC2)nc1 | 180 nM | > 100 µM |  | 
Cc1ccnc(N2CCN(CCc3c(C)n4c5c(cc(N)cc35)CCC4)CC2)c1 | 80 nM | 84 µM | 2.5 µmol/kg | inhibition [11]: 64%
COc1ccc(CN(CCN(C)C)c2ccccn2)cc1 [PYRILAMINE] | 17 nM | > 100 µM |  | 
Cc1c(CCN2CCN(c3ccc(Br)cn3)CC2)c2cccc3c2n1CCC3 | 990 nM | > 100 µM |  | 
Cc1ccnc(N2CCN(CCc3c(C)n4c5c(cc(C(=O)C6CCCCC6)cc35)CCC4)CC2)c1 | 250 nM | 2 µM | 2.9 µmol/kg | inhibition [4]: 68%
Cc1ccnc(N2CCN(CCc3c(C)n4c5c(cccc35)CCC4C3CCCCC3)CC2)c1 (stereo unspecified) |  | 25 µM |  | inhibition at 10 µM [3]: 50%
Cc1ccnc(N2CCN(CCc3c(C)n4c5c(cc(CC(C)C)cc35)CCC4)CC2)c1 | 800 nM | 4.3 µM | 5.1 µmol/kg | inhibition [4]: 20%

Compound | IC50 [1] | IC50 [2] | ED50 [5] | further results
Cc1ccnc(N2CCN(CCc3c(C)n4c5c(cc(NC(=O)c6ccccc6)cc35)CCC4)CC2)c1 | 86 nM | > 100 µM | 3 µmol/kg | inhibition [4]: 40%
CCCCC1CCc2cc(C(=O)C(C)C)cc3c(CCN4CCN(c5cc(C)ccn5)CC4)c(C)n1c23 (stereo unspecified) | 400 nM | 2 µM | 3.3 µmol/kg | inhibition [4]: 50%
Cc1ccnc(N2CCN(CCc3c(-c4ccc(Cl)cc4)n4c5c(cccc35)CCC4)CC2)c1 |  | 3.3 µM |  | inhibition at 10 µM [3]: 6%
CN1CCCC(n2nc(Cc3ccc(Cl)cc3)c3ccccc3c2=O)CC1 (stereo unspecified) [AZELASTINE] | 20 nM | > 100 µM | 3.3 µmol/kg | ED50 [10]: 7 µmol/kg
Cc1ccnc(N2CCN(CCc3c(C)n4c5c(cc(Cc6ccccc6)cc35)CCC4)CC2)c1 | 2400 nM | 2.8 µM |  | 
Cc1ccc(N2CCN(C(=O)Cc3c(C)n4c5c(cccc35)CCC4)CC2)nc1 | 8300 nM | 42 µM |  | 
CCCCCCC(=O)c1cc2c3c(c1)c(CCN1CCN(c4cc(C)ccn4)CC1)c(C)n3CCC2 | 1200 nM | 2.4 µM |  | 
CC(=O)Oc1cc2c3c(c1)c(CCN1CCN(c4cc(C)ccn4)CC1)c(C)n3CCC2 | 23 nM |  |  | 
Cc1ccnc(N2CCN(CCc3c(C)n4c5c(cc(C(=O)C(C)(C)C)cc35)CCC4)CC2)c1 | 89 nM | 5.9 µM | 3.3 µmol/kg | inhibition [4]: 22%
Cc1c(CC(=O)N2CCN(c3ccc(F)cc3)CC2)c2cccc3c2n1CCC3 | 7100 nM | 44 µM |  | 
Cc1ccnc(N2CCN(CCc3c(C)n4c5c(cc(C)cc35)CCC4)CC2)c1 | 70 nM | 9.1 µM |  | 
Cc1ccnc(N2CCN(CCc3c(C)n4c5c(cc(C(=O)c6ccccc6)cc35)CCC4)CC2)c1 | 290 nM | 0.8 µM |  | 
Cc1c(CCCN2CCN(c3ccc(F)cc3)CC2)c2cccc3c2n1CCC3 | 1900 nM | > 100 µM |  | 
Cc1ccnc(N2CCN(CCc3c(C)n4c5c(cc(CC6CCCCC6)cc35)CCC4)CC2)c1 |  | 39 µM |  | inhibition at 10 µM [3]: 50%
Cc1ccnc(N2CCN(CCc3c(C)n4c5c(cc(C(=O)C(C)C)cc35)CCC4)CC2)c1 | 37 nM | 1.9 µM | 2.9 µmol/kg | inhibition [12]: 36%
Cc1ccnc(N2CCN(CCc3c(-c4ccc(O)cc4)n4c5c(cccc35)CCC4)CC2)c1 |  | 2 µM |  | inhibition at 10 µM [3]: 14%
Cc1ccnc(N2CCN(CCc3c(C)n4c5c(cccc35)CCC4c3ccccc3)CC2)c1 (stereo unspecified) | 280 nM | 2.2 µM | 2.9 µmol/kg | inhibition [4]: 17%
CN1CCC(=C2c3ccccc3CC(=O)c3sccc32)CC1 [KETOTIFEN] | 6.4 nM | > 100 µM | 0.16 µmol/kg | ED50 [9]: 0.31 µmol/kg; ED50 [10]: 0.44 µmol/kg
